In publication PMC7442270, “Phase 3 Trial of a Small-volume Subcutaneous 6-Month Duration Leuprolide Acetate Treatment for Central Precocious Puberty” (The Journal of Clinical Endocrinology and Metabolism, 2020):

Assay: clinical
Design: species or system children with CPP
Conditions: human, in vivo, sc, 45 mg
Method: All samples were processed by a central laboratory (Syneos Health [formerly […] Health Clinique Inc.], Canada). A validated bioanalytical LC-MS/MS method with an LLOD of 0.025 ng/mL was used to measure serum leuprolide concentrations.

CCNC(=O)[C@@H]1CCCN1C(=O)[C@H](CCCNC(=N)N)NC(=O)[C@H](CC(C)C)NC(=O)[C@@H](CC(C)C)NC(=O)[C@H](Cc1ccc(O)cc1)NC(=O)[C@H](CO)NC(=O)[C@H](Cc1c[nH]c2ccccc12)NC(=O)[C@H](Cc1c[nH]cn1)NC(=O)[C@@H]1CCC(=O)N1 [leuprolide]
Cmax: 212 ng/mL
level at 672 h: 0.63 ng/mL
AUC (burst phase): 938 ng·h/mL
AUC (plateau phase): 42300 ng·h/mL
Tmax (T max, burst phase (time at which the Cmax is observed)): 3.7 h
Tmax (Time after injection at which leuprolide levels peaked): 4 h
